{
  "source": "patent US9861605B2",
  "about": "“Enriched injectable emulsion containing selected fatty acid triglycerides” (STABLE SOLUTIONS LLC, priority 2011, dated 2018)",
  "origin": "cited, not measured here",
  "conditions": "against water",
  "data": [
    {"smiles": "CCCCCCCC/C=C\\CCCCCCCC(=O)O", "note": "[oleic acid]", "values": [
      {"measurement": "interfacial tension", "result": 15.6, "unit": "dyne/cm"}
    ]},
    {"smiles": "CCCCCCCC(=O)O", "note": "[caprylic acid]", "values": [
      {"measurement": "interfacial tension", "result": "approximately 8.2 dyne/cm"}
    ]}
  ]
}
